# Patent US20120029187A1, “HALOALKYLSULFONANILIDE DERIVATIVE” (Nissan Chemical Industries, Ltd., priority 2009, published 2012)
# Tests used:
# Type in all cases: in vivo
# [1] = tested on: bulrush; experiment: Test Example 1: herbicidal effects in preemergence treatment under submerged conditions; settings: dose 2.52 g/a
# Outline: (§1)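 Alluvial soil flooded to 4 cm depth; barnyardgrass, bulrush and ducksalad sown and 2.5-leaf rice seedlings transplanted. Same day, water-diluted emulsifiable concentrates applied to the water surface at set doses (g/a). Kept at 25–30 °C in greenhouse; effects scored 0–5 by mortality after three weeks.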
# [2] = tested on: ducksalad; experiment: as above; settings: dose 2.52 g/a
# Outline: as §1
# [3] = tested on: barnyardgrass; experiment: as above; settings: dose 2.52 g/a
# Outline: as §1
# [4] = tested on: bulrush; experiment: Test Example 2: herbicidal effects during the vegetation period under submerged conditions; settings: treatment during the vegetation period under submerged conditions; dose 2.52 g/a
# Outline: (§2)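 Barnyardgrass, bulrush and ducksalad were co-sown in alluvial soil flooded to 4 cm and grown in a greenhouse at 25 to 30° C. At the 1- or 2-leaf stage, water-diluted emulsifiable concentrates went onto the water surface at set doses (g/a). Herbicidal effect was scored three weeks later on a graded scale.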
# [5] = tested on: ducksalad; experiment: as above; settings: treatment during the vegetation period under submerged conditions; dose 2.52 g/a
# Outline: as §2
# [6] = tested on: barnyardgrass; experiment: as above; settings: treatment during the vegetation period under submerged conditions; dose 2.52 g/a
# Outline: as §2
# [7] = tested on: common lambsquater; experiment: Test Example 4: herbicidal effect in foliage treatment; settings: dose 3.2 g/a
# Outline: (§3)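 Post-emergence foliar spray of water-diluted emulsifiable concentrate at predetermined doses (g per are), applied to plants 14 days after sowing in sterile diluvial soil (greenhouse, 25 to 30° C). Visual scale rating of effect taken 3 weeks later.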
# [8] = tested on: velvetleaf; experiment: as above; settings: dose 3.2 g/a
# Outline: as §3
# [9] = tested on: Italian ryegrass; experiment: as above; settings: dose 3.2 g/a
# Outline: as §3
# [10] = tested on: common ragweed; experiment: as above; settings: dose 3.2 g/a
# Outline: as §3
# [11] = tested on: large crabgrass; experiment: as above; settings: dose 3.2 g/a
# Outline: as §3
# [12] = tested on: posumbu knotweed; experiment: as above; settings: dose 3.2 g/a
# Outline: as §3
# [13] = tested on: beadstraw; experiment: as above; settings: dose 3.2 g/a
# Outline: as §3
# [14] = tested on: water foxtail; experiment: as above; settings: dose 3.2 g/a
# Outline: as §3
# [15] = tested on: barnyardgrass; experiment: as above; settings: dose 3.2 g/a
# Outline: as §3
# [16] = tested on: giant foxtail; experiment: as above; settings: dose 3.2 g/a
# Outline: as §3
# [17] = tested on: common chickweed; experiment: as above; settings: dose 3.2 g/a
# Outline: as §3
# [18] = tested on: redroot pigweed; experiment: as above; settings: dose 3.2 g/a
# Outline: as §3
# [19] = tested on: common lambsquater; experiment: Test Example 3: herbicidal effects in soil treatment; settings: dose 3.2 g/a
# Outline: (§4)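 Seeds were sown in sterilized diluvial soil and covered with about 1.5 cm of soil. Compounds, formulated as emulsifiable concentrates and diluted with water, were sprayed evenly over the soil surface at set doses in g/a. Herbicidal effect was scored on a rating scale three weeks later.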
# [20] = tested on: velvetleaf; experiment: as above; settings: dose 3.2 g/a
# Outline: as §4
# [21] = tested on: Italian ryegrass; experiment: as above; settings: dose 3.2 g/a
# Outline: as §4
# [22] = tested on: common ragweed; experiment: as above; settings: dose 3.2 g/a
# Outline: as §4
# [23] = tested on: large crabgrass; experiment: as above; settings: dose 3.2 g/a
# Outline: as §4
# [24] = tested on: posumbu knotweed; experiment: as above; settings: dose 3.2 g/a
# Outline: as §4
# [25] = tested on: beadstraw; experiment: as above; settings: dose 3.2 g/a
# Outline: as §4
# [26] = tested on: water foxtail; experiment: as above; settings: dose 3.2 g/a
# Outline: as §4
# [27] = tested on: barnyardgrass; experiment: as above; settings: dose 3.2 g/a
# Outline: as §4
# [28] = tested on: giant foxtail; experiment: as above; settings: dose 3.2 g/a
# Outline: as §4
# [29] = tested on: common chickweed; experiment: as above; settings: dose 3.2 g/a
# Outline: as §4
# [30] = tested on: redroot pigweed; experiment: as above; settings: dose 3.2 g/a
# Outline: as §4
# [31] = tested on: transplanted rice; experiment: Test Example 1: preemergence treatment under submerged conditions, effect on crop; settings: dose 2.52 g/a
# Outline: as §1
# [32] = three weeks after the application
smiles,measurement,setting,value
O=C1CC2(CCCCC2)OCN1Cc1ccccc1NS(=O)(=O)C(F)(F)F [II-67],"B: bulrush, herbicidal effect (evaluation scale 0-5)",[1],5 (mortality of 90% or above (nearly complete death))
same,"C: ducksalad, herbicidal effect (evaluation scale 0-5)",[2],5 (mortality of 90% or above (nearly complete death))
same,"A: barnyardgrass, herbicidal effect (evaluation scale 0-5)",[3],5 (mortality of 90% or above (nearly complete death))
same,"B: bulrush, herbicidal effect (evaluation scale 0-5)",[4],5 (mortality of 90% or above (nearly complete death))
same,"C: ducksalad, herbicidal effect (evaluation scale 0-5)",[5],5 (mortality of 90% or above (nearly complete death))
same,"A: barnyardgrass, herbicidal effect (evaluation scale 0-5)",[6],5 (mortality of 90% or above (nearly complete death))
same,"L: common lambsquater, herbicidal effect",[7]; three weeks after application,4 (mortality of at least 70% and less than 90%)
same,"I: velvetleaf, herbicidal effect",[8]; three weeks after application,5 (mortality of 90% or above (nearly complete death))
same,"H: Italian ryegrass, herbicidal effect",[9]; three weeks after application,2 (mortality of at least 20% and less than 40%)
same,"J: common ragweed, herbicidal effect",[10]; three weeks after application,3 (mortality of at least 40% and less than 70%)
same,"D: large crabgrass, herbicidal effect",[11]; three weeks after application,5 (mortality of 90% or above (nearly complete death))
same,"M: posumbu knotweed, herbicidal effect",[12]; three weeks after application,3 (mortality of at least 40% and less than 70%)
same,"O: beadstraw, herbicidal effect",[13]; three weeks after application,3 (mortality of at least 40% and less than 70%)
same,"G: water foxtail, herbicidal effect",[14]; three weeks after application,5 (mortality of 90% or above (nearly complete death))
same,"A: barnyardgrass, herbicidal effect",[15]; three weeks after application,5 (mortality of 90% or above (nearly complete death))
same,"E: giant foxtail, herbicidal effect",[16]; three weeks after application,5 (mortality of 90% or above (nearly complete death))
same,"N: common chickweed, herbicidal effect",[17]; three weeks after application,4 (mortality of at least 70% and less than 90%)
same,"K: redroot pigweed, herbicidal effect",[18]; three weeks after application,0 (mortality of less than 5% (almost ineffective))
same,"L: common lambsquater, herbicidal effect (evaluation scale 0-5)",[19],5 (mortality of 90% or above (nearly complete death))
same,"I: velvetleaf, herbicidal effect (evaluation scale 0-5)",[20],5 (mortality of 90% or above (nearly complete death))
same,"H: Italian ryegrass, herbicidal effect (evaluation scale 0-5)",[21],5 (mortality of 90% or above (nearly complete death))
same,"J: common ragweed, herbicidal effect (evaluation scale 0-5)",[22],2 (mortality of at least 20% and less than 40%)
same,"D: large crabgrass, herbicidal effect (evaluation scale 0-5)",[23],5 (mortality of 90% or above (nearly complete death))
same,"M: posumbu knotweed, herbicidal effect (evaluation scale 0-5)",[24],5 (mortality of 90% or above (nearly complete death))
same,"O: beadstraw, herbicidal effect (evaluation scale 0-5)",[25],5 (mortality of 90% or above (nearly complete death))
same,"G: water foxtail, herbicidal effect (evaluation scale 0-5)",[26],5 (mortality of 90% or above (nearly complete death))
same,"A: barnyardgrass, herbicidal effect (evaluation scale 0-5)",[27],5 (mortality of 90% or above (nearly complete death))
same,"E: giant foxtail, herbicidal effect (evaluation scale 0-5)",[28],5 (mortality of 90% or above (nearly complete death))
same,"N: common chickweed, herbicidal effect (evaluation scale 0-5)",[29],5 (mortality of 90% or above (nearly complete death))
same,"K: redroot pigweed, herbicidal effect (evaluation scale 0-5)",[30],3 (mortality of at least 40% and less than 70%)
same,"a: transplanted rice, effect on crop (evaluation scale 0-5)",[31],0 (mortality of less than 5% (almost ineffective))
CC1CON(Cc2ccccc2NS(=O)(=O)C(F)(F)F)C(=O)O1 (centres unmarked) [III-3],"B: bulrush, herbicidal effect (evaluation scale 0-5)",[1],5 (mortality of 90% or above (nearly complete death))
same,"C: ducksalad, herbicidal effect (evaluation scale 0-5)",[2],5 (mortality of 90% or above (nearly complete death))
same,"A: barnyardgrass, herbicidal effect (evaluation scale 0-5)",[3],4 (mortality of at least 70% and less than 90%)
same,"B: bulrush, herbicidal effect (evaluation scale 0-5)",[4],5 (mortality of 90% or above (nearly complete death))
same,"C: ducksalad, herbicidal effect (evaluation scale 0-5)",[5],5 (mortality of 90% or above (nearly complete death))
same,"A: barnyardgrass, herbicidal effect (evaluation scale 0-5)",[6],5 (mortality of 90% or above (nearly complete death))
same,"L: common lambsquater, herbicidal effect",[7]; [32],0 (mortality of less than 5% (almost ineffective))
same,"I: velvetleaf, herbicidal effect",[8]; [32],2 (mortality of at least 20% and less than 40%)
same,"H: Italian ryegrass, herbicidal effect",[9]; [32],0 (mortality of less than 5% (almost ineffective))
same,"J: common ragweed, herbicidal effect",[10]; [32],4 (mortality of at least 70% and less than 90%)
same,"D: large crabgrass, herbicidal effect",[11]; [32],4 (mortality of at least 70% and less than 90%)
same,"M: posumbu knotweed, herbicidal effect",[12]; [32],2 (mortality of at least 20% and less than 40%)
same,"O: beadstraw, herbicidal effect",[13]; [32],4 (mortality of at least 70% and less than 90%)
same,"G: water foxtail, herbicidal effect",[14]; [32],5 (mortality of 90% or above (nearly complete death))
same,"A: barnyardgrass, herbicidal effect",[15]; [32],5 (mortality of 90% or above (nearly complete death))
same,"E: giant foxtail, herbicidal effect",[16]; [32],4 (mortality of at least 70% and less than 90%)
same,"N: common chickweed, herbicidal effect",[17]; [32],4 (mortality of at least 70% and less than 90%)
same,"K: redroot pigweed, herbicidal effect",[18]; [32],0 (mortality of less than 5% (almost ineffective))
same,"herbicidal effect, L: common lambsquater",[19],0 (mortality of less than 5% (almost ineffective))
same,"herbicidal effect, I: velvetleaf",[20],1 (mortality of at least 5% and less than 20%)
same,"herbicidal effect, H: Italian ryegrass",[21],0 (mortality of less than 5% (almost ineffective))
same,"herbicidal effect, J: common ragweed",[22],5 (mortality of 90% or above (nearly complete death))
same,"herbicidal effect, D: large crabgrass",[23],5 (mortality of 90% or above (nearly complete death))
same,"herbicidal effect, M: posumbu knotweed",[24],5 (mortality of 90% or above (nearly complete death))
same,"herbicidal effect, O: beadstraw",[25],0 (mortality of less than 5% (almost ineffective))
same,"herbicidal effect, G: water foxtail",[26],5 (mortality of 90% or above (nearly complete death))
same,"herbicidal effect, A: barnyardgrass",[27],5 (mortality of 90% or above (nearly complete death))
same,"herbicidal effect, E: giant foxtail",[28],5 (mortality of 90% or above (nearly complete death))
same,"herbicidal effect, N: common chickweed",[29],4 (mortality of at least 70% and less than 90%)
same,"herbicidal effect, K: redroot pigweed",[30],0 (mortality of less than 5% (almost ineffective))
same,"a: transplanted rice, effect on crop (evaluation scale 0-5)",[31],0 (mortality of less than 5% (almost ineffective))
